Source: patent publication US20250228239A1, “MOLECULES HAVING PESTICIDAL UTILITY, AND INTERMEDIATES, COMPOSITIONS, AND PROCESSES, RELATED THERETO” (priority 2024, published 2025)

Tests used:
Type in all cases: in vivo
[1] = test system: Yellow Fever Mosquito (Aedes aegypti, AEDSAE); conditions: Yellow Fever Mosquito; rating class
Outline: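 Compounds from DMSO master plates (4000 ppm stock) diluted in 90:10 water/acetone, then dispensed into six replicate plates and infested with ~1-day-old Aedes aegypti larvae in liver-powder water. Held covered at room temperature for 3 days; each well scored for larval mortality and graded on a rating scale.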

[2] = test system: Beet Armyworm (Spodoptera exigua, LAPHEG); assay: Bioassays on Beet Armyworm (BAW), 128-well diet tray assay; conditions: Spodoptera exigua; Beet Armyworm; rating class; read-out: BAW
Outline: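 Eight diet wells per compound were treated at 50 μg/cm^2 (acetone-water 90:10), dried, then infested with 1–5 second-instar larvae each. After five to seven days at 25 °C under 14:10 photoperiod, mortality was scored and averaged across wells.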

[3] = test system: Green Peach Aphid (Myzus persicae, MYZUPE); assay: Bioassays on Green Peach Aphid (GPA), foliar spray on cabbage seedlings; conditions: 72 h, Green Peach Aphid, rating class, read-out: GPA
Outline: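 Percent control (Abbott-corrected versus solvent-sprayed plants) comes from live-aphid counts three days after treatment at about 25° C. Test solution at 200 ppm was sprayed to runoff onto both leaf surfaces of cabbage seedlings infested a day earlier with 20-50 aphids; four replicate pots.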

[4] = test system: Cabbage Looper (Trichoplusia ni, TRIPNI); assay: Bioassays on Cabbage Looper (CL), 128-well diet tray assay; conditions: Trichoplusia ni; Cabbage Looper; rating class; read-out: CL
Outline: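 Activity is mean percent mortality over eight wells of second-instar larvae exposed to diet treated at 50 μg/cm^2 for 5–7 days at 25° C.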

CC(Br)C(=O)Nc1c(F)ccc(NC(=O)c2cc(NC(=O)[C@H]3[C@H](c4ccc(F)c(C(F)(F)F)c4)C3(Cl)Cl)ccc2Cl)c1F (stereo partly drawn) [F1479, N-(3-(2-Bromopropanamido)-2,4-difluorophenyl)-2-chloro-5-((1R,3R)-2,2-dichloro-3-(4-fluoro-3-(trifluoromethyl)phenyl)cyclopropane-1-carboxamido)benzamide]
YFM [1]: A (80–100)
pest or weed control at 50 µg/cm2 [2]: 50 to 100%
pest or weed control at 200 µg/mL [3]: 0 to 80%
pest or weed control at 50 µg/cm2 [4]: 50 to 100%

CC(C)C(=O)Nc1c(F)ccc(NC(=O)c2cc(NC(=O)[C@H]3[C@H](c4ccc(F)c(C(F)(F)F)c4)C3(Cl)Cl)ccc2Cl)c1F [F1483, 2-Chloro-5-((1R,3R)-2,2-dichloro-3-(4-fluoro-3-(trifluoromethyl)phenyl)cyclopropane-1-carboxamido)-N-(2,4-difluoro-3-isobutyramidophenyl)benzamide]
YFM [1]: A (80–100)
pest or weed control at 50 µg/cm2 [2]: 50 to 100%
pest or weed control at 200 µg/mL [3]: 0 to 80%
pest or weed control at 50 µg/cm2 [4]: 50 to 100%

COCCC(=O)Nc1c(F)ccc(NC(=O)c2cc(NC(=O)[C@H]3[C@H](c4ccc(F)c(C(F)(F)F)c4)C3(Cl)Cl)ccc2Cl)c1F [F1489, 2-Chloro-5-((1R,3R)-2,2-dichloro-3-(4-fluoro-3-(trifluoromethyl)phenyl)cyclopropane-1-carboxamido)-N-(2,4-difluoro-3-(3-methoxypropanamido)phenyl)benzamide]
YFM [1]: A (80–100)
pest or weed control at 50 µg/cm2 [2]: 50 to 100%
pest or weed control at 200 µg/mL [3]: 0 to 80%
pest or weed control at 50 µg/cm2 [4]: 50 to 100%

O=C(Nc1ccc(F)c(NC(=O)C(F)(F)F)c1F)c1cc(NC(=O)[C@H]2[C@H](c3ccc(Cl)c(Cl)c3)C2(Cl)Cl)ccc1F [F1492, 5-((1R,3R)-2,2-Dichloro-3-(3,4-dichlorophenyl)cyclopropane-1-carboxamido)-N-(2,4-difluoro-3-(2,2,2-trifluoroacetamido)phenyl)-2-fluorobenzamide]
YFM [1]: A (80–100)
pest or weed control at 50 µg/cm2 [2]: 50 to 100%
pest or weed control at 200 µg/mL [3]: 0 to 80%
pest or weed control at 50 µg/cm2 [4]: 50 to 100%

O=C(Nc1ccc(F)c(NC(=O)C(F)(F)F)c1F)c1cc(NC(=O)[C@H]2[C@H](c3ccc(F)c(C(F)(F)F)c3)C2(Cl)Cl)ccc1F [F1529, 5-((1R,3R)-2,2-Dichloro-3-(4-fluoro-3-(trifluoromethyl)phenyl)cyclopropane-1-carboxamido)-N-(2,4-difluoro-3-(2,2,2-trifluoroacetamido)phenyl)-2-fluorobenzamide]
YFM [1]: A (80–100)
pest or weed control at 50 µg/cm2 [2]: 50 to 100%
pest or weed control at 200 µg/mL [3]: 0 to 80%
pest or weed control at 50 µg/cm2 [4]: 50 to 100%

C[C@H]1CC[C@@H](C(=O)Nc2c(F)ccc(NC(=O)c3cc(NC(=O)[C@H]4[C@H](c5ccc(F)c(C(F)(F)F)c5)C4(Cl)Cl)ccc3Cl)c2F)O1 [F1612, (2S,5S)-N-(3-(2-Chloro-5-((1R,3R)-2,2-dichloro-3-(4-fluoro-3-(trifluoromethyl)phenyl)cyclopropane-1-carboxamido)benzamido)-2,6-difluorophenyl)-5-methyltetrahydrofuran-2-carboxamide]
YFM [1]: A (80–100)
pest or weed control at 50 µg/cm2 [2]: 50 to 100%
pest or weed control at 200 µg/mL [3]: 0 to 80%
pest or weed control at 50 µg/cm2 [4]: 50 to 100%

CC(=O)Nc1c(F)cc(F)c(NC(=O)c2cc(NC(=O)[C@H]3[C@H](c4ccc(F)c(C(F)(F)F)c4)C3(Cl)Cl)ccc2Cl)c1F [F1613, N-(3-Acetamido-2,4,6-trifluorophenyl)-2-chloro-5-((1R,3R)-2,2-dichloro-3-(4-fluoro-3-(trifluoromethyl)phenyl)cyclopropane-1-carboxamido)benzamide]
YFM [1]: A (80–100)
pest or weed control at 50 µg/cm2 [2]: 50 to 100%
pest or weed control at 200 µg/mL [3]: 80 to 100%
pest or weed control at 50 µg/cm2 [4]: 50 to 100%

CN(C(=O)C(F)(F)C(F)(F)F)c1c(F)ccc(NC(=O)c2cc(NC(=O)[C@H]3[C@H](c4ccc(Cl)c(Cl)c4)C3(Cl)Cl)ccc2Cl)c1F [F1615, 2-Chloro-5-((1R,3R)-2,2-dichloro-3-(3,4-dichlorophenyl)cyclopropane-1-carboxamido)-N-(2,4-difluoro-3-(2,2,3,3,3-pentafluoro-N-methylpropanamido)phenyl)benzamide]
YFM [1]: A (80–100)
pest or weed control at 50 µg/cm2 [2]: 50 to 100%
pest or weed control at 200 µg/mL [3]: 0 to 80%
pest or weed control at 50 µg/cm2 [4]: 50 to 100%

CN(C(=O)CC#N)c1c(F)ccc(NC(=O)c2cc(NC(=O)[C@H]3[C@H](c4ccc(Cl)c(Cl)c4)C3(Cl)Cl)ccc2Cl)c1F [F1617, 2-Chloro-N-(3-(2-cyano-N-methylacetamido)-2,4-difluorophenyl)-5-((1R,3R)-2,2-dichloro-3-(3,4-dichlorophenyl)cyclopropane-1-carboxamido)benzamide]
YFM [1]: A (80–100)
pest or weed control at 50 µg/cm2 [2]: 50 to 100%
pest or weed control at 200 µg/mL [3]: 0 to 80%
pest or weed control at 50 µg/cm2 [4]: 50 to 100%

O=C1CCC(C(=O)Nc2c(F)ccc(NC(=O)c3cc(NC(=O)[C@H]4[C@H](c5ccc(F)c(C(F)(F)F)c5)C4(Cl)Cl)ccc3Cl)c2F)O1 (stereo partly drawn) [F1625, N-(3-(2-Chloro-5-((1R,3R)-2,2-dichloro-3-(4-fluoro-3-(trifluoromethyl)phenyl)cyclopropane-1-carboxamido)benzamido)-2,6-difluorophenyl)-5-oxotetrahydrofuran-2-carboxamide]
YFM [1]: A (80–100)
pest or weed control at 50 µg/cm2 [2]: 50 to 100%
pest or weed control at 200 µg/mL [3]: 0 to 80%
pest or weed control at 50 µg/cm2 [4]: 50 to 100%

CC(=O)Nc1c(F)cc(F)c(NC(=O)c2cc(NC(=O)[C@H]3[C@H](c4ccc(F)c(Cl)c4)C3(Cl)Cl)ccc2Cl)c1F [F1627, N-(3-Acetamido-2,4,6-trifluorophenyl)-2-chloro-5-((1R,3R)-2,2-dichloro-3-(3-chloro-4-fluorophenyl)cyclopropane-1-carboxamido)benzamide]
YFM [1]: A (80–100)
pest or weed control at 50 µg/cm2 [2]: 50 to 100%
pest or weed control at 200 µg/mL [3]: 80 to 100%
pest or weed control at 50 µg/cm2 [4]: 50 to 100%

CCC(C)C(=O)Nc1c(F)ccc(NC(=O)c2cc(NC(=O)[C@H]3[C@H](c4ccc(F)c(C(F)(F)F)c4)C3(Cl)Cl)ccc2Cl)c1F (stereo partly drawn) [F1642, 2-Chloro-5-((1R,3R)-2,2-dichloro-3-(4-fluoro-3-(trifluoromethyl)phenyl)cyclopropane-1-carboxamido)-N-(2,4-difluoro-3-(2-methylbutanamido)phenyl)benzamide]
YFM [1]: A (80–100)
pest or weed control at 50 µg/cm2 [2]: 50 to 100%
pest or weed control at 200 µg/mL [3]: 0 to 80%
pest or weed control at 50 µg/cm2 [4]: 50 to 100%

O=C(Nc1ccc(F)c(NC(=O)C2CCCC2)c1F)c1cc(NC(=O)[C@H]2[C@H](c3ccc(F)c(C(F)(F)F)c3)C2(Cl)Cl)ccc1Cl [F1643, 2-Chloro-N-(3-(cyclopentanecarboxamido)-2,4-difluorophenyl)-5-((1R,3R)-2,2-dichloro-3-(4-fluoro-3-(trifluoromethyl)phenyl)cyclopropane-1-carboxamido)benzamide]
YFM [1]: B (More than 0 – Less than 80)
pest or weed control at 50 µg/cm2 [2]: 50 to 100%
pest or weed control at 200 µg/mL [3]: 0 to 80%
pest or weed control at 50 µg/cm2 [4]: 50 to 100%

O=C(Nc1ccc(F)c(NC(=O)C2CC(F)(F)C2)c1F)c1cc(NC(=O)[C@H]2[C@H](c3ccc(F)c(C(F)(F)F)c3)C2(Cl)Cl)ccc1Cl [F1644, 2-Chloro-5-((1R,3R)-2,2-dichloro-3-(4-fluoro-3-(trifluoromethyl)phenyl)cyclopropane-1-carboxamido)-N-(3-(3,3-difluorocyclobutane-1-carboxamido)-2,4-difluorophenyl)benzamide]
YFM [1]: B (More than 0 – Less than 80)
pest or weed control at 50 µg/cm2 [2]: 50 to 100%
pest or weed control at 200 µg/mL [3]: 0 to 80%
pest or weed control at 50 µg/cm2 [4]: 50 to 100%

CCCC(=O)Nc1c(F)ccc(NC(=O)c2cc(NC(=O)[C@H]3[C@H](c4cc(Cl)c(Cl)c(Cl)c4)C3(Cl)Cl)ccc2Cl)c1F [F1655, N-(3-Butyramido-2,4-difluorophenyl)-2-chloro-5-((1R,3R)-2,2-dichloro-3-(3,4,5-trichlorophenyl)cyclopropane-1-carboxamido)benzamide]
YFM [1]: B (More than 0 – Less than 80)
pest or weed control at 50 µg/cm2 [2]: 50 to 100%
pest or weed control at 200 µg/mL [3]: 0 to 80%
pest or weed control at 50 µg/cm2 [4]: 50 to 100%

O=C(Nc1ccc(F)c(NC(=O)C(F)(F)F)c1F)c1cc(NC(=O)[C@H]2[C@H](c3ccc(Cl)c(C(F)(F)F)c3)C2(Cl)Cl)ccc1Cl [F1656, 2-Chloro-5-((1R,3R)-2,2-dichloro-3-(4-chloro-3-(trifluoromethyl)phenyl)cyclopropane-1-carboxamido)-N-(2,4-difluoro-3-(2,2,2-trifluoroacetamido)phenyl)benzamide]
YFM [1]: A (80–100)
pest or weed control at 50 µg/cm2 [2]: 50 to 100%
pest or weed control at 200 µg/mL [3]: 0 to 80%
pest or weed control at 50 µg/cm2 [4]: 50 to 100%

O=C(Nc1ccc(F)c(NC(=O)C(F)F)c1F)c1cc(NC(=O)[C@H]2[C@H](c3ccc(Cl)c(C(F)(F)F)c3)C2(Cl)Cl)ccc1Cl [F1657, 2-Chloro-5-((1R,3R)-2,2-dichloro-3-(4-chloro-3-(trifluoromethyl)phenyl)cyclopropane-1-carboxamido)-N-(3-(2,2-difluoroacetamido)-2,4-difluorophenyl)benzamide]
YFM [1]: A (80–100)
pest or weed control at 50 µg/cm2 [2]: 50 to 100%
pest or weed control at 200 µg/mL [3]: 80 to 100%
pest or weed control at 50 µg/cm2 [4]: 50 to 100%
